pIC50: −log10 of the molar value. Calls of active or inactive are those of the source. The calls are words filed in the database; no cut-off is given here. Non-standard residues stand in square brackets, D forms with d. Residues, ends and D or L forms follow the SMILES beside them. *: point of attachment. Tetrazole5CO(2-(4-MeOPh)) = COc1ccc(-n2nnc(C(=O)*)n2)cc1; Trp(6-Cl) = N[C@@H](Cc1c[nH]c2cc(Cl)ccc12)C(=O)O; X1 = COc1ccc(N2N=C(C(=O)*)CC2C(N)=O)cc1; Methacryloyl = C=C(C)C(=O)*
The compounds below were run on U2OS (assay: Induction of p53-dependent luciferase activity in human U2OS cells at 20 uM).
Format: functional, cell-based

| Compound | Activity |
| --- | --- |
| Ac-LTFEHYWAQLTS-NH2 | inactive |
| COc1ccc(N2N=C(C(=O)NCCCC[C@H](NC(=O)[C@H](CC(C)C)NC(=O)[C@H](CCC(N)=O)NC(=O)[C@H](CCCNC(=N)N)NC(=O)[C@H](Cc3c[nH]c4ccccc34)NC(=O)[C@H](Cc3ccc(O)cc3)NC(=O)[C@H](CCCNC(=N)N)NC(=O)[C@H](CCCCNC(C)=O)NC(=O)[C@H](Cc3ccccc3)NC(=O)[C@@H](NC(=O)[C@H](CC(C)C)NC(C)=O)[C@@H](C)O)C(=O)N[C@@H](CO)C(N)=O)CC2C(N)=O)cc1 (some centres not stated) (Ac-LTFK(Ac)RYWRQLK(X1)S-NH2) | inactive |

These compounds were tested on U2OS (assay: Drug uptake in human U2OS cells at 20 uM after 4 hrs by fluorescence microscopy).
Format: ADME, cell-based

| Compound | Drug uptake |
| --- | --- |
| COc1ccc(N2N=C(C(=O)NCCCC[C@H](NC(=O)[C@H](CC(C)C)NC(=O)[C@H](CCC(N)=O)NC(=O)[C@H](CCCNC(=N)N)NC(=O)[C@H](Cc3c[nH]c4ccccc34)NC(=O)[C@H](Cc3ccc(O)cc3)NC(=O)[C@H](CCCNC(=N)N)NC(=O)[C@H](CCCCNC(C)=O)NC(=O)[C@H](Cc3ccccc3)NC(=O)[C@@H](NC(=O)[C@H](CC(C)C)NC(C)=O)[C@@H](C)O)C(=O)N[C@@H](CO)C(N)=O)CC2C(N)=O)cc1 (some centres not stated) (Ac-LTFK(Ac)RYWRQLK(X1)S-NH2) | Active |
| C=C(C)C(=O)NCCCC[C@H](NC(=O)[C@H](Cc1ccccc1)NC(=O)[C@@H](NC(=O)[C@H](CC(C)C)NC(C)=O)[C@@H](C)O)C(=O)N[C@@H](CCCN=C(N)N)C(=O)N[C@@H](Cc1ccc(O)cc1)C(=O)N[C@@H](Cc1c[nH]c2cc(Cl)ccc12)C(=O)N[C@@H](CCCN=C(N)N)C(=O)N[C@@H](CCC(N)=O)C(=O)N[C@@H](CC(C)C)C(=O)N[C@@H](CCCCNC(=O)c1nnn(-c2ccc(OC)cc2)n1)C(=O)N[C@@H](CO)C(N)=O (Ac-LTFK(Methacryloyl)RY[Trp(6-Cl)]RQLK(Tetrazole5CO(2-(4-MeOPh)))S-NH2) | Active |
| C=C(C)C(=O)NCCCC[C@H](NC(=O)[C@H](Cc1ccccc1)NC(=O)[C@@H](NC(=O)[C@H](CC(C)C)NC(C)=O)[C@@H](C)O)C(=O)N[C@@H](CCCN=C(N)N)C(=O)N[C@@H](Cc1ccc(O)cc1)C(=O)N[C@@H](Cc1c[nH]c2ccccc12)C(=O)N[C@@H](C)C(=O)N[C@@H](CCCN=C(N)N)C(=O)N[C@@H](CC(C)C)C(=O)N[C@@H](CCCCNC(=O)c1nnn(-c2ccc(OC)cc2)n1)C(=O)N[C@@H](CO)C(N)=O (Ac-LTFK(Methacryloyl)RYWARLK(Tetrazole5CO(2-(4-MeOPh)))S-NH2) | Active |

Other lines, results leading:

| Drug uptake | Compound |
| --- | --- |
| Active | C=C(C)C(=O)NCCCC[C@H](NC(=O)[C@H](Cc1ccccc1)NC(=O)[C@@H](NC(=O)[C@H](CC(C)C)NC(C)=O)[C@@H](C)O)C(=O)N[C@@H](Cc1cnc[nH]1)C(=O)N[C@@H](Cc1ccc(O)cc1)C(=O)N[C@@H](Cc1c[nH]c2ccccc12)C(=O)N[C@@H](CCCN=C(N)N)C(=O)N[C@@H](CCC(N)=O)C(=O)N[C@@H](CC(C)C)C(=O)N[C@@H](CCCCNC(=O)c1nnn(-c2ccc(OC)cc2)n1)C(=O)N[C@@H](CO)C(N)=O |
| Active | C=C(C)C(=O)NCCCC[C@H](NC(=O)[C@H](Cc1ccccc1)NC(=O)[C@@H](NC(=O)[C@H](CC(C)C)NC(C)=O)[C@@H](C)O)C(=O)N[C@@H](Cc1cnc[nH]1)C(=O)N[C@@H](Cc1ccc(O)cc1)C(=O)N[C@@H](Cc1c[nH]c2ccccc12)C(=O)N[C@@H](C)C(=O)N[C@@H](CCCN=C(N)N)C(=O)N[C@@H](CC(C)C)C(=O)N[C@@H](CCCCNC(=O)c1nnn(-c2ccc(OC)cc2)n1)C(=O)N[C@@H](CO)C(N)=O |
| Active | C=C(C)C(=O)NCCCC[C@H](NC(=O)[C@H](Cc1ccccc1)NC(=O)[C@@H](NC(=O)[C@H](CC(C)C)NC(C)=O)[C@@H](C)O)C(=O)N[C@@H](CCCNC(=N)N)C(=O)N[C@@H](Cc1ccc(O)cc1)C(=O)N[C@@H](Cc1c[nH]c2ccccc12)C(=O)N[C@@H](CCCNC(=N)N)C(=O)N[C@@H](CCC(N)=O)C(=O)N[C@@H](CC(C)C)C(=O)N[C@@H](CCCCNC(=O)c1nnn(-c2ccc(OC)cc2)n1)C(=O)N[C@@H](CO)C(N)=O (Ac-LTFK(Methacryloyl)RYWRQLK(Tetrazole5CO(2-(4-MeOPh)))S-NH2) |

These compounds were tested against E3 ubiquitin-protein ligase Mdm2 (Homo sapiens, UniProt Q00987) (assay: Inhibition of human GST-tagged Mdm2 expressed in Escherichia coli harboring integrated p53-Mmd2 protein assessed as blockade of enzyme-p53 interaction by ELISA assay).
Chain of E3 ubiquitin-protein ligase Mdm2 (Q00987 whole entry): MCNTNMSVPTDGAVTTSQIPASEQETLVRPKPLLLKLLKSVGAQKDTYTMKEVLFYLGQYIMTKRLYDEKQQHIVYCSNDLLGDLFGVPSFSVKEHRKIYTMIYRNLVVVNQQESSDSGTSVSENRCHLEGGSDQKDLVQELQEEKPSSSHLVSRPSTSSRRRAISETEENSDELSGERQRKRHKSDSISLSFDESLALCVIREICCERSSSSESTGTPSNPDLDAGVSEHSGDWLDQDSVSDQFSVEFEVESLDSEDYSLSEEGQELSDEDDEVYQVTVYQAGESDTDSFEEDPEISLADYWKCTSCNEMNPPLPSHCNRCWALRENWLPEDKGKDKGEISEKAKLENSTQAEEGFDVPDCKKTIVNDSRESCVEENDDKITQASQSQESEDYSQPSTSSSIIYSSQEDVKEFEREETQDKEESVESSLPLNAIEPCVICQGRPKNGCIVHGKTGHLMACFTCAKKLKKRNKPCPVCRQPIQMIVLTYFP

| pIC50 | Compound |
| --- | --- |
| > 7.32 | CC(=O)NCCCC[C@H](NC(=O)[C@H](CC(C)C)NC(=O)[C@H](CCC(N)=O)NC(=O)[C@H](C)NC(=O)[C@H](Cc1c[nH]c2ccccc12)NC(=O)[C@H](Cc1ccc(O)cc1)NC(=O)[C@H](Cc1cnc[nH]1)NC(=O)[C@H](CCC(=O)O)NC(=O)[C@H](Cc1ccccc1)NC(=O)[C@@H](NC(=O)[C@H](CC(C)C)NC(C)=O)[C@@H](C)O)C(=O)N[C@@H](CO)C(N)=O |
| > 8.00 | CC(=O)NCCCC[C@H](NC(=O)[C@H](Cc1ccccc1)NC(=O)[C@@H](NC(=O)[C@H](CC(C)C)NC(C)=O)[C@@H](C)O)C(=O)N[C@@H](Cc1cnc[nH]1)C(=O)N[C@@H](Cc1ccc(O)cc1)C(=O)N[C@@H](Cc1c[nH]c2ccccc12)C(=O)N[C@@H](C)C(=O)N[C@@H](CCC(N)=O)C(=O)N[C@@H](CC(C)C)C(=O)N[C@H](C(=O)N[C@@H](CO)C(N)=O)[C@@H](C)O |
| > 7.51 | Ac-LTFEHYWK(Ac)QLTS-NH2 |
| > 7.32 | Ac-LTFEHYWAK(Ac)LTS-NH2 |

— ChEMBL document CHEMBL1687880, “Synthesis of cell-permeable stapled peptide dual inhibitors of the p53-Mdm2/Mdmx interactions via photoinduced cycloaddition” (Bioorg Med Chem Lett, 2011)
